Experimental data taken from patent publication US7173021B2, “Synthesis of temozolomide esters as potent anticancer pro-drugs for topical and transdermal applications in treatments of cancers” (Tianjin North Pharm Sci-Tech Co., Ltd., priority 2004, dated 2007).
≈ marks a conversion by molar mass, not a printed value. One block for each molecule: values may come before it.

What was measured:
[1] = Solubility in 10% v/v propylene glycol; assay type: physicochemical; conditions: 10% v/v propylene glycol aqueous solution, aqueous with cosolvent or surfactant or cyclodextrin, thermodynamic from solid, ambient conditions, stirred 5 hours, read-out: Solubility, Concentration
Protocol: The potential of temozolomide esters used as topical and transdermal prodrugs is first proven through studies of their solubility. That is a decreased trend of solubility in an aqueous solution with increase of the length of the ester hydrocarbon alkyl chain of the temozolomide esters. It is clear the solubility constantly decreases from the methyl ester to the octyl ester, while temozolomide itself is 3.0 mg/ml similar to that of the methyl ester. […] Similarly to the esters, the solubility of the temozolomide amide products in the aqueous solution is considerably lower than that of temozolomide.
The solubility of temozolomide and the temozolomide esters was determined in 10% v/v propylene glycol by stirring an excess of the solid products at room temperature for 5 hours. The mixtures were then filtered, diluted with sample solvent and analysed using HPLC.

[2] = In vitro permeation, Franz diffusion cell, silicone membrane; assay type: in vitro ADME; conditions: 37° C., 8 h, FIGS. 3-5
From the text: Jacketed Franz-type diffusion cells were used throughout the study and the barrier (12) (skin or silicone membrane) was mounted between the two chambers (14, 16) (2.8–3.4 cm^2 available surface area) with the dermal side in contact with the receiver solution (FIG. 2). The diffusion chambers (10) comprised a barrier of skin or silicone membrane (12) mounted between two chambers (14, 16). A cap (18) formed the donor compartment (14). The second receptor compartment (16) contained a receptor cell (20) with a stirring bar (22), sampling port (24) and cover (26). The stirring bar (22) was stirred by means of a magnet plate (28) having a rotating magnet. The receptor compartment comprised a water jacket (30) having a water inlet (32) and a water outlet (34).
Three types of materials were used in permeation studies. • 1. Silicone membrane (Silastic Medical Grade, 500-5, Dow Corning 0.005 in thick) was cut into circular sections (2 cm diameter) and washed with double distilled water prior to use. • 2. Full-thickness rat skin was obtained from Male Wistar rats aged 10 to 12 weeks and weighing 250 to 300 g, which were sacrificed by cervical dislocation, the abdomen shaved and the intact skin removed by dissection. Following removal of fat tissue, the skin was cut into circular pieces and used immediately. • 3. Samples of adult human epidermis were purchased from the Stephen Kirby Skin Bank (UK). The samples were from the leg, were stored at −18° C. and used within one week. Experiments
The membrane (as detailed above) was mounted on the diffusion cell (10), on which the surface area available for diffusion of each cell was about 2.8–3.4 cm^2. The cell cap (18) was placed on the membrane (12), and it was sealed with Parafilm® connecting the cell cap, membrane, and receptor cell. The capacity of each receptor cell was around 25–26 ml, which was filled with receptor solution and was completely in contact with the membrane sheet. During the course of experiment, the solution was continuously stirred by teflon-coated magnetic bar (22) placed in the cell (20). The temperature was maintained at 37° C. by a thermostatic water pump that circulated the water through the jacket (30) surrounding the cell body. The system was allowed to equilibrate under these conditions for half an hour. Finally, the prepared sample solution (2 ml) was added into the donor cap cell, and it was sealed with Parafilm® to minimize the evaporation of donor solution. 1 ml of receptor solution was removed every 30 minutes for 5 hours and then every 60 minutes for a further 3 hours. The volumes withdrawn were always replaced with equal volumes of fresh receptor solution to maintain constant volume. The concentration of each sample solution was determined by using HPLC.
For every sample, six determinations were performed on human and rat skin, and three determinations were carried out through artificial silicone membrane.
As stated above, after the removal of receptor solution, the receiver compartment was refilled with an identical volume of receptor fluid. This causes of the dilution of receptor solution leading to an under determination of the sample concentration. As a consequence, it was necessary to mathematically correct each successive sample concentrations, in the present invention, which was determined by applying the following equation:
[formula] where Ct is the actual current concentration of drug in the receptor phase at time t, Cmt is the apparent (i.e. measured) current concentration of drug in the receptor phase, Vs is the sample volume withdrawn for analysis, Vr is the volume of receptor solution, and ΣCm is the summed total of the previous measured concentrations.
Finally, the amount of drug penetrating the skin per unit area was calculated by dividing the obtained concentrations by the surface area available for diffusion cell and this value was different for each individual cell. […]

[3] = tested on: MCF-7 (human breast); experiment: In vitro tumour cell growth inhibition (MTT), MCF-7; assay type: cell-based; conditions: MCF7, Table 1 experiment, 96 h
Protocol: (§1) Temozolomide (white powder), temozolomide acid (white powder) and temozolomide-8-carboxylate hexyl (white scale crystal) were made in house. For the estimation of in vitro tumour cell growth inhibition, MV3 (human melanoma), M14 (human melanoma), B16 and B16-BL6 (mouse melanoma), SHG-44, TJ899 and TJ905 (human glioma), MCF-7 (human breast), HCT-8 (human colon), A549 (human non small lung), Bel7402 (human hepatocellulor), and BGC-823 (human stomach) were used. All tumour cells were cultured in RPMI-1640 medium supplemented with 10% fetal bovine serum (FBS) at 37° C. in a humidified 5% CO2 incubator.
(§2) After being harvested from culture flasks, a cell suspension of 1×10^4/ml was made by using 1640 RPMI medium supplemented with 10% fetal bovine serum. 100 μl (contains 1000 tumour cells) of the cell suspension was seeded per well of 96-well flat-bottom Costar culture plates at 37° C. in a humidified 5% CO2 incubator for 24 hrs before introducing drugs. Each tested compounds was made for five different concentrations and 100 μl of the each concentration was introduced into parallel three wells; control wells were added with 100 μl of plain medium alone; fluorouracil (a chemotherapeutic antitumour drug) was used as the positive control. Cells were then incubated for 96 h. Proliferative response and cell death were determined using MTT (3-(4,5-dimethylthiazolyl)-2,5-diphenyl-tetrazolium bromide) assay.
(§3) MTT assay: Following incubation of cells with the tested compounds for 96 h, 100 μl of 0.4 mg/ml MTT in RPMI 1640 was added to each well and the plate was incubated at 37° C. for 4 h. The plate was then centrifuged and followed by removal of medium. 150 μl of DMSO was then added to dissolve formazan crystal. DMSO-added plates were placed on a plate shaker for 5 min and absorbance was measured spectrophotometrically at 540 nm (with reference wavelength at 450 nm) using a Benchmark microtiter plate reader (Bio-Rad 550, Bio-Rad Laboratories, CA, U.S.A.).
(§4) The IC50 was calculated from the curve of the tested compound concentrations against the inhibition rate of the tumour cells. […]

[4] = tested on: MV3 (human melanoma); experiment: In vitro tumour cell growth inhibition (MTT), MV3; assay type: cell-based; conditions: 96 h
Protocol: as §1, §2, §3
(§5) The IC50 was calculated from the curve of the tested compound concentrations against the inhibition rate of the tumour cells. Table 1 summarized the experiment results by using six human cancer cell lines, HCT-8 (colon carcinoma), A549 (non small lung carcinoma), MCF-7 (breast), Bel7402 (hepatocellulor carcinoma), BGC-823 (stomach adenocarcinoma), and MV3 (melanoma). Table 2 summarized the results from the experiment results by using two human melanoma cell lines, MV3 and M14, two mouse melanoma cell lines, B16 and B16-BL6, and three human glioma cell lines, TJ899, SHG-44 and TJ905.

[5] = tested on: BGC-823 (human stomach); experiment: In vitro tumour cell growth inhibition (MTT), BGC-823; assay type: cell-based; conditions: Table 1 experiment, 96 h
Protocol: as §1, §2, §3, §4

[6] = tested on: A549 (human non small lung); experiment: In vitro tumour cell growth inhibition (MTT), A549; assay type: cell-based; conditions: Table 1 experiment, 96 h
Protocol: as §1, §2, §3, §4

[7] = tested on: HCT-8 (human colon); experiment: In vitro tumour cell growth inhibition (MTT), HCT-8; assay type: cell-based; conditions: Table 1 experiment, 96 h
Protocol: as §1, §2, §3, §4

[8] = tested on: Bel7402 (human hepatocellulor); experiment: In vitro tumour cell growth inhibition (MTT), Bel-7402; assay type: cell-based; conditions: Table 1 experiment, 96 h
Protocol: as §1, §2, §3, §4

[9] = tested on: TJ899 (human glioma); experiment: In vitro tumour cell growth inhibition (MTT), TJ899; assay type: cell-based; conditions: Table 2 experiment, 96 h
Protocol: as §1, §2, §3, §5

[10] = tested on: B16-BL6 (mouse melanoma); experiment: In vitro tumour cell growth inhibition (MTT), B16-BL6; assay type: cell-based; conditions: Table 2 experiment, 96 h
Protocol: as §1, §2, §3, §5

[11] = tested on: M14 (human melanoma); experiment: In vitro tumour cell growth inhibition (MTT), M14; assay type: cell-based; conditions: Table 2 experiment, 96 h
Protocol: as §1, §2, §3, §5

[12] = tested on: B16 (mouse melanoma); experiment: In vitro tumour cell growth inhibition (MTT), B16; assay type: cell-based; conditions: Table 2 experiment, 96 h
Protocol: as §1, §2, §3, §5

[13] = tested on: SHG-44 (human glioma); experiment: In vitro tumour cell growth inhibition (MTT), SHG-44; assay type: cell-based; conditions: Table 2 experiment, 96 h
Protocol: as §1, §2, §3, §5

[14] = tested on: TJ905 (human glioma); experiment: In vitro tumour cell growth inhibition (MTT), TJ905; assay type: cell-based; conditions: Table 2 experiment, 96 h
Protocol: as §1, §2, §3, §5

[15] = tested on: pig liver esterase; experiment: Enzymatic metabolizing study with pig liver esterase (1H NMR); assay type: in vitro ADME; conditions: 37° C., pH 7.4 buffer; ester complete at 10 minutes; amide followed up to 8 hours
Protocol: First the present invention establishes the metabolised process of the temozolomide esters by pig liver esterase in vitro. ^1H NMR spectra 1 (FIG. 1) records the degradation profile of the temozolomide methyl ester under incubation condition (Rathbone D L, 1999). […] Finally, at 10 minutes, the intensity of the singlet at 3.58 ppm grows to the grade similar to the original of the two singlets at 3.63 and 3.65 ppm, which while are completely eliminated. […] This discovery establishes the solid foundation for the temozolomide esters to be considered as the potential anticancer pro-drugs.
Enzymatic metabolizing studies of the temozolomide methyl ester was carried out using pig liver esterase enzyme from Sigma [a suspension in 3.2 M ammonium sulphate solution pH 8; 200 unit/mg protein (14 mg protein/ml)]. • A. To a NMR tube 2 mg of the temozolomide methyl ester was added, followed by 0.2 ml of d6-DMSO, 0.5 ml D2O of pH 7.4 sulphate buffer and finally 50 μl of the enzyme solution. Record a ^1H NMR spectrum immediately, then the mixture was incubated at 37° C. and record a ^1H NMR spectrum at each 5 minutes time interval. […] The samples were dissolved in d6-DMSO in an NMR tube, 50 μl of enzyme solution was added and the solution incubated at 37° C.

solubility at 5 h [1]: 1400 µg/mL (≈ 5590 µM)
SMILES: Cn1nnc2c(C(=O)NC(C)(C)C)ncn2c1=O [Temozolomide t-butyl amide, 3-Methyl-N-(tert-butyl)-4-oxoimidazo[5,1-d]-1,2,3,5-tetrazine-8-carboxamide]

solubility at 5 h [1]: 2000 µg/mL (≈ 8430 µM)
SMILES: CCCOC(=O)c1ncn2c(=O)n(C)nnc12 [Temozolomide n-propyl ester, n-Propyl 3,4-dihydro-3-methyl-4-oxoimidazo[5,1-d]-1,2,3,5-tetrazine-8-carboxylate]
Permeation through synthetic silicone membrane [2]: passed through the membrane far more efficiently

IC50 [3]: 0.629 µg/mL (≈ 4.84 µM) | IC50 ([4]; Homo sapiens, Table 1 experiment): 0.427 µg/mL (≈ 3.28 µM) | IC50 [5]: 0.722 µg/mL (≈ 5.55 µM) | IC50 [6]: 0.126 µg/mL (≈ 0.969 µM) | IC50 [7]: 0.606 µg/mL (≈ 4.66 µM) | IC50 [8]: 0.495 µg/mL (≈ 3.81 µM)
SMILES: O=c1[nH]cc(F)c(=O)[nH]1 [Fluorouracil, fluorouracil, reference compound]

IC50 MV3 ([4]; Table 2 experiment (separate)): 0.647 µg/mL (≈ 3.55 µM) | IC50 TJ899 [9]: 5.600 µg/mL (≈ 30.7 µM) | IC50 B16-BL6 [10]: 61.765 µg/mL (≈ 339 µM) | IC50 M14 [11]: 0.558 µg/mL (≈ 3.06 µM) | IC50 B16 [12]: 10.000 µg/mL (≈ 54.9 µM) | IC50 SHG-44 [13]: 1.261 µg/mL (≈ 6.92 µM) | IC50 TJ905 [14]: 6.860 µg/mL (≈ 37.7 µM)
SMILES: CN(C)/N=N/c1[nH]cnc1C(N)=O [Darcabazine]

solubility at 5 h [1]: 3000 µg/mL (≈ 14300 µM)
SMILES: COC(=O)c1ncn2c(=O)n(C)nnc12 [Temozolomide methyl ester, Methyl 3,4-dihydro-3-methyl-4-oxoimidazo[5,1-d]-1,2,3,5-tetrazine-8-carboxylate]
Degradation to temozolomide acid by pig liver esterase [15]: completely degraded and released temozolomide acid | Permeation through synthetic silicone membrane [2]: can not pass through the synthetic membrane easily
